Measurements as given in patent publication US8354547B2, “4β-amino podophyllotoxin congeners as anti tumour antibiotics a process for the preparation thereof” (Council of Scientific & Industrial Research, priority 2008, dated 2013).

Legend:
Topoisomerase-I = molecular target: T1, Topoisomerase-I (Homo sapiens, UniProt P11387); test: Topoisomerase-I relaxation assay; assay type: biochemical; conditions: at 100 μM (FIG. 2)
T1 sequence (P11387 1-765): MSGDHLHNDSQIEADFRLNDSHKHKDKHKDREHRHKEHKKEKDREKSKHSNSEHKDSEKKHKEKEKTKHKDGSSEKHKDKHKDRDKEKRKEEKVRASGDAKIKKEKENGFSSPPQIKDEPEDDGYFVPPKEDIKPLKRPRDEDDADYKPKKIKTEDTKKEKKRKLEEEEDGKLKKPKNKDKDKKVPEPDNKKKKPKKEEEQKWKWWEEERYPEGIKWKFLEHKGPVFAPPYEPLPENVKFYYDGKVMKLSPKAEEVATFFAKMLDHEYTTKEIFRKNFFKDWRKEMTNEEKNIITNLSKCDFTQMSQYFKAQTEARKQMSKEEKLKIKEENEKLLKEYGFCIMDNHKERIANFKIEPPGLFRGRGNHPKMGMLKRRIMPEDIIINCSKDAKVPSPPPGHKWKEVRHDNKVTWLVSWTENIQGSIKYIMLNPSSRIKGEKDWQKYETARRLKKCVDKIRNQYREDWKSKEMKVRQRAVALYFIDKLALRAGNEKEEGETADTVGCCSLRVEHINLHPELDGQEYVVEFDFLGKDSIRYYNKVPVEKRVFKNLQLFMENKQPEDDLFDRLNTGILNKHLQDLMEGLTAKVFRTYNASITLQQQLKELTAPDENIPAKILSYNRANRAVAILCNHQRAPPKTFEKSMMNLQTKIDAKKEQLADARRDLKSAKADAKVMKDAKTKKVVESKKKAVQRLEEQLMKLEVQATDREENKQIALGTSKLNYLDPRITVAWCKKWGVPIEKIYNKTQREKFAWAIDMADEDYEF
Procedure: Apart from this, some of these analogues were evaluated for Topoisomerase-I relaxation, Topoisomerase-II inhibition, DNA laddering assay and DNA cell cycle analysis. Compounds 3c, 4c, 3d and 4d were analyzed for topoisomerase-I assay at 100 μM (FIG. 2) only compound 3d was found active and rest were not active. Compounds 3d, 4d and 4c were analyzed for topoisomerase inhibition assay.
Reaction was assembled in micro centrifuge tube that contains super coiled DNA 250 ng/μl & Topoisomerase-I (4 units) in assay buffer (10 mM Tris-HCl, pH 7.9, 0.15 M NaCl, 0.1% BSA, and 5.0 mM (beta)-mercaptoethanol). In each reaction 2 μl sample was added then volume was made up to 20 μl with water and then incubated at 37° C. Reaction was terminated by addition of 2 μl of 10% SDS. Each sample tube was treated with proteinase K and extracted once with chloroform: isoamyl alcohol. Products were resolved by 0.8% agarose gel electrophoresis in TAE buffer (40 mM tris-acetate, pH 8.0, and 1 mM EDTA) and stained with 0.5 μg/ml ethedium bromide (EtBr).

[1] = test system: Neuroblastoma (IMR-32) cancer cell line; test: SRB in vitro cytotoxicity assay, Neuroblastoma IMR-32; assay type: cell-based, human; conditions: concentration 1 × 10^−5 (μM/mL)
Procedure: (§1) Single cell suspension of the tumor cells grown in tissue culture were made, cells counted and cell count adjusted to 1×10^5 to 5×10^5 Ninetysix (96) well plates were seeded with this cell suspension, each well receiving 100 μl of it. The plate was then be incubated at 37° C. temperature in CO2 incubator for 24 hours. Drugs were added at appropriate concentrations after 24-hour, incubation followed by further incubation for 48 hours. Experiment was terminated by gently layering the cells in the wells with 30% TCA and plates were kept in refrigerator for 1 hour following which they were washed thoroughly with tap water, dried attained with 0.4% SRB in 1% acetic aid and finally, the bound SRB eluted with 10 mM tris. Absorbance was read at 540 nm, in the microtitre-plate reader. Optical density of drug-treated cells was compared with that of control cells and cell inhibition was calculated as percent values. […]

[2] = test system: Breast (MCF-7) cancer cell line; test: SRB in vitro cytotoxicity assay, Breast MCF-7; assay type: cell-based, human; conditions: concentration 1 × 10^−5 (μM/mL)
Procedure: as §1

leukemia (MOLT-4) cells = test: DNA laddering (fragmentation) assay by gel electrophoresis; assay type: cell-based; conditions: 0.5, 1, 5, and 10 μM, 24 hr incubation (FIG. 4)
Procedure: (§2) Compound 3d evaluated for DNA laddering assay.
DNA fragmentation was determined by electrophoresis of extracted genomic DNA form leukemia cell (MOLT4). Briefly, exponentially growing cells (2×10^6 cells/mL) in 6 well plate were treated with compound 3d in 0.5, 1, 5 and 10 μM concentrations for 24 hrs. Cells were harvested, washed with PBS, pellets were dissolved in lyris buffer (10 mM EDTA, 50 mM Tris pH 8.0, 0.5% w/v SDS and proteinase K (0.5 mg/mL) and incubated at 50° C. for 1 hr. Finally the DNA obtained was heated rapidly to 70° C., supplemented with loading dye and immediately resolved on to 1.5% agarose gel at 50 V for 2-3 hrs (FIG. 4).

Lukemia (HL-60) cells = test: DNA cell cycle analysis by flow cytometry; assay type: cell-based; conditions: 0.5, 1, 5, and 10 μM, 24 hr (FIG. 5)
Procedure: as §2
Effect of compound 3d on DNA content by cell cycle phase distribution was assessed using HL-60 cells by incubating the HL-60 cells (1×10^6) 1 ml phosphate buffer saline were treated with 3d (0.5, 1, 5, 10 μM) for 24 hr. The cells were then washed twice with ice-cold PBS, harvested, fixed with ice cold PBS in 70% ethanol, and stored at −20° C. for 30 minutes. After Fixation, these cells were incubated with RNase A (0.1 mg/ml) at 37° C. for 30 min, stained with propidium iodide (50 μg/ml) for 30 min on ice in dark, and then measured for DNA content using BD-LSR flow cytometer (Becton Dickinson, USA) equipped with electronic doublet discrimination capability using blue (488 nm) excitation from orgon laser. Data were collected in list mode on 10,000 events for FL2-A vs. FL2-W (FIG. 5).

[3] = test system: CNS (SK-N-SH) cancer cell line; test: SRB in vitro cytotoxicity assay, CNS SK-N-SH; assay type: cell-based, human; conditions: concentration 1 × 10^−5 (μM/mL)
Procedure: as §1

[4] = test system: Colon (Colo-205) cancer cell line; test: SRB in vitro cytotoxicity assay, Colon Colo-205; assay type: cell-based, human; conditions: concentration 1 × 10^−5 (μM/mL)
Procedure: as §1

[5] = test system: Liver (HEP-2) cancer cell line; test: SRB in vitro cytotoxicity assay, Liver HEP-2; assay type: cell-based, human; conditions: concentration 1 × 10^−5 (μM/mL)
Procedure: as §1

[6] = test system: Colon (SW-620) cancer cell line; test: SRB in vitro cytotoxicity assay, Colon SW-620; assay type: cell-based, human; conditions: concentration 1 × 10^−5 (μM/mL)
Procedure: as §1

COc1cc([C@@H]2c3cc4c(cc3[C@@H](Nc3cc5c6ccccc6ccc5c5ccccc35)[C@@H]3COC(=O)[C@H]23)OCO4)cc(OC)c1OC [Compound 3d, 4β-(6″-Chrycenylamino)-4-desoxypodophyllotoxin]
activity in topoisomerase-I assay (Topoisomerase-I): active
Growth Inhibition(%) Neuroblastma IMR-32 [1]: 1%
Growth Inhibition(%) Breast MCF-7 [2]: 0%
DNA fragmentation (leukemia (MOLT-4) cells): induced DNA fragmentation
cell cycle phase block (Lukemia (HL-60) cells): blocks the G1 Phase
sub G1 cell population (apoptosis) (Lukemia (HL-60) cells): increase
Growth Inhibition(%) CNS SK-N-SH [3]: 73%
Growth Inhibition(%) Colon Colo-205 [4]: 51%
Growth Inhibition(%) Liver HEP-2 [5]: 66%
Growth Inhibition(%) Colon SW-620 [6]: 14%
